# Results: the supplement of paper PMC10307832
# Experiments:
# Experiment in all cases: relative viability (nuclei count vs DMSO), 5 days (fraction); higher = more cells survive
# Alisertib + Palbociclib = compound: COc1cc(Nc2ncc3c(n2)-c2ccc(Cl)cc2C(c2c(F)cccc2OC)=NC3)ccc1C(=O)O [Alisertib] + CC(=O)c1c(C)c2cnc(Nc3ccc(N4CCNCC4)cn3)nc2n(C2CCCC2)c1=O [Palbociclib] (partner 0.5 µM)
# Procedure, shortened: (§1)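 Lung cancer cell lines in 1536-well plates got either a single drug or a fixed anchor-drug dose together with five library-drug doses (not always all listed) in √10 steps, by pin tool, on the day after seeding. Nuclei were counted after 5 days, and relative viability is the treated-to-vehicle ratio of nuclei counts. Values are medians of duplicate plates.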
# Alisertib + Pictilisib = compound: COc1cc(Nc2ncc3c(n2)-c2ccc(Cl)cc2C(c2c(F)cccc2OC)=NC3)ccc1C(=O)O [Alisertib] + CS(=O)(=O)N1CCN(Cc2cc3nc(-c4cccc5[nH]ncc45)nc(N4CCOCC4)c3s2)CC1 [Pictilisib] (partner 1 µM)
# Procedure, shortened: as §1
# Alisertib + Phenformin = compound: COc1cc(Nc2ncc3c(n2)-c2ccc(Cl)cc2C(c2c(F)cccc2OC)=NC3)ccc1C(=O)O [Alisertib] + N=C(N)NC(=N)NCCc1ccccc1 [Phenformin] (partner 250 µM)
# Procedure, shortened: as §1
# Alisertib + Decitabine = compound: COc1cc(Nc2ncc3c(n2)-c2ccc(Cl)cc2C(c2c(F)cccc2OC)=NC3)ccc1C(=O)O [Alisertib] + Nc1ncn([C@H]2C[C@H](O)[C@@H](CO)O2)c(=O)n1 [Decitabine] (partner 2 µM)
# Procedure, shortened: as §1
Cell Line,relative viability (Alisertib + Palbociclib; first compound 0.005 µM),relative viability (Alisertib + Palbociclib; first compound 0.01581 µM),relative viability (Alisertib + Palbociclib; first compound 0.05 µM),relative viability (Alisertib + Palbociclib; first compound 0.1581 µM),relative viability (Alisertib + Palbociclib; first compound 0.5 µM),relative viability (Alisertib + Pictilisib; first compound 0.005 µM),relative viability (Alisertib + Pictilisib; first compound 0.01581 µM),relative viability (Alisertib + Pictilisib; first compound 0.05 µM),relative viability (Alisertib + Pictilisib; first compound 0.1581 µM),relative viability (Alisertib + Pictilisib; first compound 0.5 µM),relative viability (Alisertib + Phenformin; first compound 0.005 µM),relative viability (Alisertib + Phenformin; first compound 0.01581 µM),relative viability (Alisertib + Phenformin; first compound 0.05 µM),relative viability (Alisertib + Phenformin; first compound 0.1581 µM),relative viability (Alisertib + Phenformin; first compound 0.5 µM),relative viability (Alisertib + Decitabine; first compound 0.005 µM),relative viability (Alisertib + Decitabine; first compound 0.01581 µM),relative viability (Alisertib + Decitabine; first compound 0.05 µM),relative viability (Alisertib + Decitabine; first compound 0.1581 µM),relative viability (Alisertib + Decitabine; first compound 0.5 µM)
NCI-H1651,0.476,0.486,0.333,0.21,0.189,0.51,0.429,0.289,0.161,0.121,0.218,0.222,0.147,0.101,0.175,0.557,0.433,0.339,0.182,0.161
NCI-H1792,0.697,0.522,0.423,0.343,0.169,0.304,0.223,0.0811,0.0732,0.0644,0.299,0.253,0.107,0.13,0.0705,0.575,0.496,0.213,0.132,0.0838
NCI-H2023,0.349,0.288,0.174,0.125,0.0948,0.193,0.194,0.191,0.128,0.0717,0.428,0.388,0.28,0.157,0.0966,0.252,0.193,0.145,0.109,0.0849
COR-L 105,0.368,0.417,0.356,0.33,0.37,0.44,0.34,0.336,0.264,0.281,0.454,0.493,0.335,0.234,0.246,0.633,0.698,0.481,0.349,0.324
NCI-H1734,0.397,0.325,0.296,0.245,0.188,0.427,0.4,0.283,0.226,0.17,0.314,0.298,0.256,0.221,0.176,0.497,0.466,0.324,0.24,0.177
NCI-H3122,0.174,0.174,0.215,0.139,0.149,0.584,0.62,0.586,0.266,0.198,0.376,0.371,0.37,0.248,0.142,0.376,0.412,0.375,0.192,0.161
HCC-78,0.5,0.458,0.357,0.407,0.307,0.172,0.253,0.168,0.145,0.0967,0.61,0.541,0.321,0.281,0.26,0.635,0.507,0.316,0.29,0.298
NCI-H2085,0.505,0.469,0.344,0.346,0.336,0.463,0.435,0.46,0.248,0.248,0.597,0.651,0.42,0.259,0.327,0.565,0.544,0.319,0.396,0.332
